# Source: patent US10149474B2, “Herbicidal compositions comprising isoxaflutole and diflufenican” (BAYER CROPSCIENCE AKTIENGESELLSCHAFT, priority 2015, dated 2018)
# Assays:
# Assay in all cases: Greenhouse trial, herbicidal activity against weed plants pre-emergence
# Settings in all cases: 3 weeks
# AMAPA USA12001 = format: in vivo, Amaranthus palmeri
# Source text: (§1) Test Conditions in the Greenhouse Trial, Herbicidal Activity Against Weed Plants Pre-Emergence
# (§2) Seeds of monocotyledonous and dicotyledonous weed plants and crop plants are shown in sandy loam soil in wood fibre pots, and covered with soil. The compounds of the invention, formulated in the form of wettable powders (WP) or emulsifiable concentrates (EC), are then applied to the surface of the covering earth, in the form of an aqueous suspension or emulsion, with a water application rate when converted of 600 to 800 I/ha with addition of 0.2% of wetting agent. Following the treatment, the pots are placed in a greenhouse and maintained under good growth conditions for the test plants. Visual scoring of the damage to the trial plants takes place after a trial time of 3 weeks in comparison to untreated controls (herbicidal activity in percent (%): 100% activity=plants have died; 0% activity=as control plants). The results are set out in the tables which follow.
# AMAPA (USA12001) Amaranthus palmeri (against HPPD-resistant species)
# (§3) E^C=Expected value according to Colby (E^C=A+B−A×B/100)
# (§4) Δ=Difference (%) between measured value and expected value (%) (measured value minus expected value)
# (§5) • measured value E is greater than E^C:→synergism (+Δ) • measured value E is equal to E^C:→additive effect • measured value E is smaller than E^C:→antagonism (−Δ)
# POAAN = format: in vivo, Poa annua
# Source text: as §1, §2, §3, §4, §5
# POLCO = format: in vivo, Polygonum convolvulus
# Source text: as §1, §2
# POLCO Polygonum convolvulus
# as §3, §4, §5
# PHBPU = format: in vivo, Pharbitis purpureum
# Source text: as §1, §2
# PHBPU Pharbitis purpureum
# as §3, §4, §5
# EPHHL = format: in vivo, Euphorbia heterophylla
# Source text: as §1, §2
# EPHHL Euphorbia heterophylla
# as §3, §4, §5
# ECHCG = format: in vivo, Echinochloa crus galli
# Source text: as §1, §2
# ECHCG Echinochloa crus galli
# as §3, §4, §5
# AMATA = format: in vivo, Amaranthus tamariscinus
# Source text: as §1, §2
# AMATA Amaranthus tamariscinus
# as §3, §4, §5
smiles,measurement,setting,value
"O=C(Nc1ccc(F)cc1F)c1cccnc1Oc1cccc(C(F)(F)F)c1 [DFF, diflufenican]",Activity [%] against AMAPA USA12001,AMAPA USA12001; rate 9.375 g/ha,20%
same,Activity [%] against AMAPA USA12001,AMAPA USA12001; rate 18.75 g/ha,35%
same,Activity [%] against AMAPA USA12001,AMAPA USA12001; rate 37.5 g/ha,45%
same,Activity [%] against AMAPA USA12001,AMAPA USA12001; rate 75 g/ha,70%
same,Activity [%] against POAAN,POAAN; rate 9.375 g/ha,3%
same,Activity [%] against POAAN,POAAN; rate 18.75 g/ha,88%
same,Activity [%] against POLCO,POLCO; rate 37.5 g/ha,55%
same,Activity [%] against PHBPU,PHBPU; rate 9.375 g/ha,0%
same,Activity [%] against PHBPU,PHBPU; rate 18.75 g/ha,3%
same,Activity [%] against PHBPU,PHBPU; rate 37.5 g/ha,25%
same,Activity [%] against PHBPU,PHBPU; rate 75 g/ha,70%
same,Activity [%] against EPHHL,EPHHL; rate 37.5 g/ha,30%
same,Activity [%] against ECHCG,ECHCG; rate 9.375 g/ha,5%
same,Activity [%] against ECHCG,ECHCG; rate 18.75 g/ha,5%
same,Activity [%] against AMATA,AMATA; rate 9.375 g/ha,83%
"CS(=O)(=O)c1cc(C(F)(F)F)ccc1C(=O)c1cnoc1C1CC1 [IFT, isoxaflutole]",Activity [%] against AMAPA USA12001,AMAPA USA12001; rate 6 g/ha,0%
same,Activity [%] against AMAPA USA12001,AMAPA USA12001; rate 13 g/ha,15%
same,Activity [%] against AMAPA USA12001,AMAPA USA12001; rate 25 g/ha,55%
same,Activity [%] against POAAN,POAAN; rate 6 g/ha,0%
same,Activity [%] against POAAN,POAAN; rate 25 g/ha,0%
same,Activity [%] against POLCO,POLCO; rate 3 g/ha,0%
same,Activity [%] against POLCO,POLCO; rate 13 g/ha,35%
same,Activity [%] against PHBPU,PHBPU; rate 6 g/ha,20%
same,Activity [%] against EPHHL,EPHHL; rate 6 g/ha,70%
same,Activity [%] against ECHCG,ECHCG; rate 3 g/ha,73%
same,Activity [%] against AMATA,AMATA; rate 3 g/ha,10%
